In US12193465B2, “Materials and methods for extending shelf-life of foods” (JP Laboratories, Inc., priority 2021, dated 2025):
Several values for one entry are separate records, joined by “and”; a condition that tells them apart may be missing. Equal values may be shown once. Entries after “also recorded” stand apart in the source; their conditions may differ.

Key:
[1] = Color change / browning / yellowing of foods (keeping produce green longer); details: for Change in color and softness: after 70 days
Procedure: All studies were conducted at a room temperature of about 25° C. To determine the effectiveness of a shelf-life extender, a control sample which was untreated with any shelf-life extenders, was tested identical to the test samples. […] All studies in those Examples of Tables 1-6 were conducted in closed plastic or glass containers. Containers, such as plastic containers, without or with lids having holes can be used if it is advantageous to let excess moisture escape or to prevent condensation of moisture released by some produce.
Food exposed to preservatives or by a sachet was placed in typically polystyrene or acrylic containers depending upon the size and number of food items. Glass jars and bottles were also used. The containers were snap-closed or with a lid. The containers were purchased mainly from Amazon or Webstaurant.com store. When needed, plastic containers with holes or without lids were used.
For controlled exposure and a constant supply of a preservative to foods, sachets containing one or more drops of preservatives were used. Sachets were made by placing an appropriate amount of a preservative in a plastic bag containing a piece of paper and heat sealing the bag. The sachet bag materials used were Tyvek® for solid preservative, polyethylene, polyester and high barrier multilayer films were used for liquid preservatives. These bags were sealed with a heat sealer. The sachet was typically applied on one side of the container containing food.
A piece of paper napkin was taped inside a 100 microns thick polyethylene or polyester Ziploc bag. The size of the bag varied from ˜20 cm×30 cm to ˜60 cm×90 cm depended on the sample with sandwich bags up to gallon bags being exemplary. The paper napkin was wetted with 0.1-0.5 ml of a preservative or a mixture of preservatives. A tray of aluminum, stainless steel or glass containing the foods was placed inside the plastic (polyethylene, polyester and multilayer-laminated) bag and almost closed by locking the Ziploc. Air was blown with an air blower from the unclosed end until the bag was fully blown and then quickly closed tightly by locking the remaining Ziploc. If a preservative was a sublimable solid, it was placed in a petri dish and then placed inside the bag in the tray before blowing air. The exposure time was varied from five minutes to a day depending upon the food. […] The assembly was shaken periodically. After the predetermined time, the tray containing produce was removed from the bag, allowed to de-gas for 10-30 minutes in air and the produce was then placed in an appropriately sized container. Glass and stainless steel containers with lids were also often used.
A solution of one or more preservatives was prepared in a large (e.g., 2-10 liter) glass beaker or a jar. A sack containing the food was prepared by placing the food in a plastic mesh bag. The sack was placed in the solution of the preservative. A smaller glass beaker containing proper amount of water was place over the package to keep the sack soaked in the solution of the preservative during the treatment. The solution was stirred either with a plastic spatula or with a magnet over a magnetic stirrer. After treatment, the mesh sack was removed, the produce was washed in a tray with running water, strained and air dried at 30° C. in an air blowing oven for about 5-10 minutes, while shaking the tray or turning the food periodically followed by placing the sample in an appropriate container.
The food was placed in mesh trays and sprayed with an aqueous solution (1-10%) of a preservative while shaking the tray or turning the food. The solution was allowed to drain from the tray and the food was air dried in an air blowing oven at 30° C. for about 5-10 minutes, while shaking the tray or turning food periodically followed by placing the sample in an appropriate container.

[2] = tested on: avocado; assay: Softening / rotten inside (spoiled flesh) of avocado; details: for Spoilage Time - Sample: Softening, Avocado, control 2 days
Excerpt: (§1) Most of the foods changed color or texture.
(§2) The assembly was shaken periodically.

[3] = Color loss of meat and fish; details: meat and fish
Excerpt: as §1
(§3) These bags were sealed with a heat sealer.

[4] = Odor and softening/mushiness of pre-soaked grains; details: Odor, White rice, control 5 days
Excerpt: as §1, §3

[5] = Curdling / cream / solidification of milk
Excerpt: as §1

[6] = General shelf-life extension of foods (spoilage criteria of Example 9)
[7] = tested on: yeast; assay: Rising of dough; details: Example 74; Freshly prepared dough for bread; 1% in 100 g flour
Excerpt: On a control sample of freshly prepared dough, rising could continuously be observed throughout the day.

[8] = tested on: fungus; assay: Fungus growth on treated foods stored in closed containers at room temperature; details: for Spoilage Time - Sample: Fungus;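 as to Effectiveness on ginger: compared with untreated control ginger in closed containers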
Excerpt: as §1
Glass jars and bottles were also used. The containers were snap-closed or with a lid.
as §3, §2

C=CCN=C=S [AI, allyl isothiocyanate]
Spoilage Time - Sample ([1]; Example 11, Browning, Coriander, 0.25 hr P-E, control 11 days): significantly delayed
Spoilage Time - Sample ([1]; Example 12, Color change, Paneer (Indian cottage cheese), Sachet, control 9 days): 10+ days
Spoilage Time - Sample ([1]; Example 13, Color change, Red cabbage juice, 0.02 g, control 12 days): 13 days
Spoilage Time - Sample ([1]; Example 14, Color change, Blackberry juice, 0.02 g, control 5 days): 12 days
Spoilage Time - Sample ([1]; Example 15, Color change, Tindora, 2 hrs P-E, control 6 days): 17 days
Spoilage Time - Sample ([1]; Example 15, Color change, Tindora, 2 hrs P-E, control 6 days, listed as allyl isothiocyanate): delay of ripening and turning red from green was achieved
Green-to-yellow color change ([1]; Example 30, fresh green chickpeas, sachet, control 7 days): > 9 days
Change in color and softness ([1]; Example 48, puri): There was very little change in color and softness of puri even after 70 days. Other
Change in color and softness ([1]; Example 53, millet bread): There was very little change in color and softness of millet bread even after 70 days.
Color change from green-to-yellow ([1]; Examples 25 & 27, broccoli, vapors, control 5 days): > 16 days
Spoilage Time - Sample ([2]; Example 77, 0.25 hr P-E): 2 days
Spoilage Time - Sample ([2]; Example 78, 2 hrs P-E): 2 days
Spoiling of the flesh with development of fungus ([2]; avocados, Examples 77, 78, 107, 108, 113 & 171): significantly delayed
Improvements with meat and fish [3]: demonstrated improvements
Spoilage Time - Sample ([4]; Example 72, 5 ml of 10% allyl isothiocyanate solution in water): 21 days
Spoilage Time - Sample ([4]; Example 72, 5 ml of 10% allyl isothiocyanate solution in water, listed as allyl isothiocyanate): > 21 days
Spoilage Time - Sample ([4]; Example 73, Sachet): 21 days
Spoilage Time - Sample ([5]; Example 16, Cream, Raw cow milk, 0.07 g, control 3 days): 24 days
Spoilage Time - Sample ([5]; Example 17, Curdling, Milk (pasteurized, whole milk), 0.10 g, control 2 days): 16 days
Spoilage Time - Sample ([5]; Example 18, Curdling, Milk & Yogurt (whole milk & yogurt) mix, 0.10 g, control 2 days): 16 days
Spoilage Time - Sample ([5]; Example 18, Curdling, Milk & Yogurt (whole milk & yogurt) mix, 0.10 g, control 2 days, listed as allyl isothiocyanate): > 16 days
Spoilage Time - Sample ([5]; Example 19, Curdling, Milk (pasteurized, whole milk), 0.05 g, control 2 days): 28 days
Spoilage Time - Sample ([5]; Example 19, Curdling, Milk (pasteurized, whole milk), 0.05 g, control 2 days, listed as allyl isothiocyanate): > 28 days and > 21 days
Shelf-life of flowery vegetables ([6]; flowery vegetables): extended shelf-life
Shelf-life extension ([6]; tindora dipped in solution): demonstrated shelf-life extension
Effectiveness as shelf-life extender ([6]; tofu): effective
Effectiveness for controlling one or more spoilage criteria ([6]; variety of foods): effective to a greater or lesser extent
Rise of dough [7]: did not rise; also recorded: allyl isothiocyanate is capable of killing yeast
Fungus growth ([8]; Example 12, Paneer (Indian cottage cheese), sachet): > 10 days
Spoilage Time - Sample ([8]; Example 20, Apple juice, 0.02 g, control 7 days): 13 days
Spoilage Time - Sample ([8]; Example 21, Beet juice, 0.02 g, control 7 days): 13 days
Spoilage Time - Sample ([8]; Example 22, Blueberries, 16 hrs P-E, control 3 days): 24 days
Spoilage Time - Sample ([8]; Example 25, Broccoli, 0.25 hr P-E, control 6 days): 9 days
Spoilage Time - Sample ([8]; Example 26, Broccoli, Sachet, control 6 days): 9 days
Spoilage Time - Sample ([8]; Example 27, Broccoli, 2 hrs P-E, control 5 days): 16 days
Spoilage Time - Sample ([8]; Example 28, Carrot juice, 0.02 g, control 12 days): 13 days
Spoilage Time - Sample ([8]; Example 30, Chickpeas, Sachet, control 7 days): 9+ days
Spoilage Time - Sample ([8]; Example 33, Fresh, raw, shelled undried peanuts, Sachet, control 18 days): 46 days
Spoilage Time - Sample ([8]; Example 33, Fresh, raw, shelled undried peanuts, Sachet, control 18 days, listed as allyl isothiocyanate): significantly delayed or prevented
Spoilage Time - Sample ([8]; Example 35, 5.3% Gelatin, 175 bloom in water, Sachet, control 9 days): 47 days
Spoilage Time - Sample ([8]; Example 37, 4% Guar Gum in water, Sachet, control 5 days): 47 days
Spoilage Time - Sample ([8]; Example 39, Guar beans, 2 hrs P-E, control 6 days): 17 days
Spoilage Time - Sample ([8]; Example 40, Honeydew juice, 0.02 g, control 12 days): 30 days
Spoilage Time - Sample ([8]; Example 42, Lychee, 0.5 hr P-E, control 7 days): 11 days
Spoilage Time - Sample ([8]; Example 44, Mixed Legumes, 64 hrs P-E, 6 hrs soaking, control 11 days): 17 days
Spoilage Time - Sample ([8]; Example 45, Monterey cheese, Sachet, control 7 days): 10+ days
Spoilage Time - Sample ([8]; Example 45, Monterey cheese, Sachet, control 7 days, listed as allyl isothiocyanate): > 10 days
Spoilage Time - Sample ([8]; Example 47, Pomegranate juice, 0.02 g, control 7 days): 13 days
Spoilage Time - Sample ([8]; Example 48, Puri (Indian fried bread), 16 hrs P-E, control 5 days): 70+ days
Spoilage Time - Sample ([8]; Example 49, Raspberry, 1 hr P-E, control 5 days): 9 days
Spoilage Time - Sample ([8]; Example 50, Raspberry, 0.33 hr P-E, control 5 days): 31 days
Spoilage Time - Sample ([8]; Example 51, Raw milk cheddar cheese, 1 hr P-E & Sachet, control 6 days): 35 days
Spoilage Time - Sample ([8]; Example 53, Rotala (Indian millet bread), 16 hrs P-E, control 5 days): 70+ days
Spoilage Time - Sample ([8]; Example 56, 26.7% Starch solution in water, 0.25 ml of 0.42% solution, control 5 days): 47 days
Spoilage Time - Sample ([8]; Example 57, 26.7% Starch solution in water, Sachet, control 5 days): 47 days
Spoilage Time - Sample ([8]; Example 58, Strawberries, 5 hrs P-E, control 2 days): 15 days
Spoilage Time - Sample ([8]; Example 59, Tindora, 2 hrs P-E, control 6 days): 40 days
Spoilage Time - Sample ([8]; Example 60, Tofu, Sachet, control 6 days): 9+ days
Spoilage Time - Sample ([8]; Example 60, Tofu, Sachet, control 6 days, listed as allyl isothiocyanate): > 9 days
Spoilage Time - Sample ([8]; Example 62, Unshelled peanuts, 5 ml of 0.42% solution, control 5 days): 8 days
Spoilage Time - Sample ([8]; Example 62, Unshelled peanuts, 5 ml of 0.42% solution, control 5 days, listed as allyl isothiocyanate): either prevented or significantly delayed
Spoilage Time - Sample ([8]; Example 63, Wild Rice, 5 ml of 10% allyl isothiocyanate solution in water, control 11 days): 21 days
Spoilage Time - Sample ([8]; Example 64, Wild Rice, Sachet, control 11 days): 21 days
Spoilage Time - Sample ([8]; Example 89, Mixed Legumes, AI & Humidity, 64 hrs P-E AI, 6 hrs soaking in water, control 11 days): 17 days
Fungus growth ([8]; Indian millet bread, Indian wheat bread (roti), cheesecake, sachet or pre-exposure to vapors): either prevented or significantly delayed
Effectiveness in preventing fungus ([8]; compared with ethyl isothiocyanate): more effective
Fungus growth ([8]; fresh cold pressed carrot, red cabbage and beet juice, Examples 28, 21, 13): either prevented or significantly delayed
Fungus growth ([8]; fresh cold pressed pomegranate, blackberry, orange, red grape, apple, blueberry and honeydew juice): either prevented or significantly delayed
Shelf-life of vegetable juices ([8]; fresh, cold pressed tomatillo, lime and green cabbage juices): improved shelf-life
Effectiveness on ginger ([8]; ginger, pre-exposure and sachet method): found effective
Fungus growth ([8]; guar gum and starch, Examples 37, 56 & 57): either prevented or significantly delayed
Shelf-life of raw milk yogurt ([8]; raw milk yogurt): extended shelf-life
Fungus growth ([8]; strawberries, raspberries, blackberries and lychee): either prevented or significantly delayed
